Experimental findings from ChEMBL document CHEMBL2311483, “HCV NS5A replication complex inhibitors. Part 3: discovery of potent analogs with distinct core topologies” (Bioorg Med Chem Lett, 2013) are described below.

The subject of one data set is Hepatitis C virus. Briefly: Antiviral activity against HCV1b harboring NS5B infected in human HuH7 cells assessed as inhibition of viral replication after 72 hrs by FRET assay. The note with it: genotype 1b, Huh-7, 72 h. In kind it is functional, organism-based, Hepacivirus hominis.
The nature of data set [1]: Cytotoxicity against human HuH7 cells after 72 hrs by Alamar blue assay. In kind it is cell-based, Huh-7.
The test system of data set [2] is Bovine viral diarrhea virus 1. In words: Antiviral activity against Bovine viral diarrhea virus infected in human HuH7 cells assessed as inhibition of viral replication by luciferase reporter gene assay. In kind it is functional, organism-based. The note with it: Bovine viral diarrhea virus isolates and strains, Huh-7. In general terms: Reporter assays use an easily measured gene product as a stand-in for the process of interest.

Data set [3] can be described thus: Solubility of the compound in phosphate buffer at pH 6.5. It is filed as physicochemical.

Each structure is given as a SMILES string. Converted amounts (≈) assume the structure as drawn.

`O=C(Nc1ccc(/C=C\c2ccc(NC(=O)[C@@H]3CCCN3C(=O)Cc3ccccc3)cc2)cc1)[C@@H]1CCCN1C(=O)Cc1ccccc1`: the values for the EC50 (in the data set on Hepatitis C virus; in data set [2]) were 12.4 nM and greater than 10 µM, respectively. Also, in data set [1], the CC50 (commonly the concentration giving 50% cytotoxicity) at 72 h is greater than 10 µM.
Consider `O=C(Nc1ccc(C#Cc2ccc(NC(=O)[C@@H]3CCCN3C(=O)Cc3ccccc3)cc2)cc1)[C@@H]1CCCN1C(=O)Cc1ccccc1`, for which the 50% effective concentration (EC50) (in general, the concentration that produces a half-maximal response) in the data set on Hepatitis C virus is 6.24 nM; in data set [2], greater than 10 µM. This compound returned a CC50 at 72 h in data set [1] greater than 10 µM.
On to `O=C(Nc1ccc(N2CCc3cc(NC(=O)[C@@H]4CCCN4C(=O)Cc4ccccc4)ccc3C2)nc1)[C@@H]1CCCN1C(=O)Cc1ccccc1`, for which the EC50 is 1.74 nM with Hepatitis C virus and greater than 10 µM in data set [2]. The compound further displayed a CC50 at 72 h in data set [1] greater than 10 µM.
For the compound `O=C(Nc1ccc(CCc2ccc(NC(=O)[C@@H]3CCCN3C(=O)Cc3ccccc3)cc2)cc1)[C@@H]1CCCN1C(=O)Cc1ccccc1`, the figures for the EC50 (in the data set on Hepatitis C virus; in data set [2]) were 6.01 nM and greater than 10 µM, respectively. This compound returned a CC50 at 72 h in data set [1] greater than 10 µM.
`O=C(Nc1ccc(NC(=O)[C@@H]2CCCN2C(=O)Cc2ccccc2)cc1)c1ccc(NC(=O)[C@@H]2CCCN2C(=O)Cc2ccccc2)cc1`: the concentration giving a half-maximal response (EC50) in the data set on Hepatitis C virus is 11 nM; in data set [2], greater than 10 µM. This compound also registered a cytotoxic concentration (CC50) at 72 h in data set [1] greater than 10 µM.
With `CC(C)(c1ccc(NC(=O)[C@@H]2CCCN2C(=O)Cc2ccccc2)cc1)c1ccc(NC(=O)[C@@H]2CCCN2C(=O)Cc2ccccc2)cc1`, the 50% effective concentration (EC50) with Hepatitis C virus was 638 nM; in data set [2], greater than 10 µM. Moreover, the CC50 at 72 h in data set [1] is greater than 10 µM.
Turning to `O=C(Nc1ccc(Cc2ccc(NC(=O)[C@@H]3CCCN3C(=O)Cc3ccccc3)cc2)cc1)[C@@H]1CCCN1C(=O)Cc1ccccc1`, the values for the EC50 (with Hepatitis C virus; in data set [2]) were 1700 nM and greater than 10 µM, respectively. Also, the CC50 at 72 h in data set [1] was greater than 10 µM.
Turning to `O=C(Nc1ccc(-c2coc(-c3ccc(NC(=O)[C@@H]4CCCN4C(=O)Cc4ccccc4)cc3)n2)cc1)[C@@H]1CCCN1C(=O)Cc1ccccc1`, the EC50 was 1.32 nM with Hepatitis C virus and greater than 10 µM in data set [2]. The cytotoxic concentration (CC50) at 72 h in data set [1] was greater than 10 µM.
In the case of `O=C(c1ccc(NC(=O)[C@@H]2CCCN2C(=O)Cc2ccccc2)cc1)c1ccc(NC(=O)[C@@H]2CCCN2C(=O)Cc2ccccc2)cc1`, the figures for the concentration giving a half-maximal response (EC50) (in the data set with Hepatitis C virus; in data set [2]) were 3950 nM and greater than 10 µM, respectively. For the same compound, in data set [1], the CC50 at 72 h was greater than 10 µM.
With `Cn1nc(-c2ccc(NC(=O)[C@@H]3CCCN3C(=O)Cc3ccccc3)cc2)cc1-c1ccc(NC(=O)[C@@H]2CCCN2C(=O)Cc2ccccc2)cc1`, the EC50 is 181 nM with Hepatitis C virus and greater than 10 µM in data set [2]. The CC50 at 72 h in data set [1] was greater than 10 µM.
In the case of `O=C(Nc1ccc(CN2CCc3cc(NC(=O)[C@@H]4CCCN4C(=O)Cc4ccccc4)ccc3C2)cc1)[C@@H]1CCCN1C(=O)Cc1ccccc1`, the 50% effective concentration (EC50) in the data set on Hepatitis C virus was 159 nM; in data set [2], greater than 10 µM. The same compound had a cytotoxic concentration (CC50) at 72 h in data set [1] greater than 10 µM.
Take `O=C(Nc1ccc(Oc2ccc(NC(=O)[C@@H]3CCCN3C(=O)Cc3ccccc3)cc2)cc1)[C@@H]1CCCN1C(=O)Cc1ccccc1`: the results for the EC50 (in the data set with Hepatitis C virus; in data set [2]) were 1990 nM and greater than 10 µM, respectively. The compound also registered a CC50 at 72 h in data set [1] greater than 10 µM.
For the compound `O=C(Nc1ccc(-c2ccc(-c3ccc(NC(=O)[C@@H]4CCCN4C(=O)Cc4ccccc4)cc3)s2)cc1)[C@@H]1CCCN1C(=O)Cc1ccccc1`, the EC50 is 14.7 nM in the data set on Hepatitis C virus and greater than 10 µM in data set [2]. In data set [1], this compound came in with a CC50 at 72 h greater than 10 µM.
In the case of `O=C(Nc1ccc(-c2nc[nH]c2-c2ccc(NC(=O)[C@@H]3CCCN3C(=O)Cc3ccccc3)cc2)cc1)[C@@H]1CCCN1C(=O)Cc1ccccc1`, the concentration giving a half-maximal response (EC50) with Hepatitis C virus is 20.9 nM; in data set [2], greater than 10 µM. Further, in data set [1], the CC50 at 72 h was greater than 10 µM.
Turning to `O=C(Nc1ccc(-c2cc(-c3ccc(NC(=O)[C@@H]4CCCN4C(=O)Cc4ccccc4)cc3)[nH]n2)cc1)[C@@H]1CCCN1C(=O)Cc1ccccc1`, the values for the 50% effective concentration (EC50) (in the data set with Hepatitis C virus; in data set [2]) were 0.71 nM and greater than 10 µM, respectively. In data set [1], this compound displayed a CC50 at 72 h greater than 10 µM.
In the case of `CN(C(=O)c1ccc(NC(=O)[C@@H]2CCCN2C(=O)Cc2ccccc2)cc1)c1ccc(NC(=O)[C@@H]2CCCN2C(=O)Cc2ccccc2)cc1`, the EC50 in the data set with Hepatitis C virus was 6250 nM; in data set [2] it was greater than 10 µM. In addition, in data set [1], the CC50 at 72 h is greater than 10 µM.
As for `O=C(Nc1ccc(-c2nc3ccc(NC(=O)[C@@H]4CCCN4C(=O)Cc4ccccc4)cc3[nH]2)cc1)[C@@H]1CCCN1C(=O)Cc1ccccc1`, the results for the half-maximal effective concentration (EC50) (in the data set on Hepatitis C virus; in data set [2]) were 1050 nM and greater than 10 µM, respectively. Further, the cytotoxic concentration (CC50) at 72 h in data set [1] was greater than 10 µM.
For the compound `O=C(Nc1ccc(CCCc2ccc(NC(=O)[C@@H]3CCCN3C(=O)Cc3ccccc3)cc2)cc1)[C@@H]1CCCN1C(=O)Cc1ccccc1`, the EC50 was 36.1 nM in the data set on Hepatitis C virus and greater than 10 µM in data set [2]. In data set [1], the half-maximal cytotoxic concentration (CC50) at 72 h is greater than 10 µM.
Take `O=C(Nc1ccc(-c2c[nH]nc2-c2ccc(NC(=O)[C@@H]3CCCN3C(=O)Cc3ccccc3)cc2)cc1)[C@@H]1CCCN1C(=O)Cc1ccccc1`: the concentration giving a half-maximal response (EC50) with Hepatitis C virus is 4.57 nM; in data set [2], greater than 10 µM. In data set [1], this compound yielded a CC50 at 72 h greater than 10 µM.
As to `O=C(Nc1ccc(-c2nn[nH]c2-c2ccc(NC(=O)[C@@H]3CCCN3C(=O)Cc3ccccc3)cc2)cc1)[C@@H]1CCCN1C(=O)Cc1ccccc1`, the EC50 in the data set with Hepatitis C virus is 8.18 nM; in data set [2] it was greater than 10 µM. In addition, the 50% cytotoxic concentration (CC50) at 72 h in data set [1] is greater than 10 µM.
On to `O=C(Nc1ccc([C@H]2C[C@@H]2c2ccc(NC(=O)[C@@H]3CCCN3C(=O)Cc3ccccc3)cc2)cc1)[C@@H]1CCCN1C(=O)Cc1ccccc1`, for which the solubility (as a rule, the concentration that dissolves in the medium under given conditions) in data set [3] stood at 3 µg/mL (≈ 4.58 µM). Moreover, the concentration for a half-maximal effect (EC50) is 5.66 nM in the data set with Hepatitis C virus and greater than 10 µM in data set [2]. Further, in data set [1], the cytotoxic concentration (CC50) at 72 h is greater than 10 µM.
Regarding `O=C(Nc1ccc(-c2ccc(NC(=O)[C@@H]3CCCN3C(=O)Cc3ccccc3)cc2)cc1)[C@@H]1CCCN1C(=O)Cc1ccccc1`, the EC50 in the data set with Hepatitis C virus stood at 205 nM.
Regarding `O=C(Nc1ccc([C@H]2C[C@H]2c2ccc(NC(=O)[C@@H]3CCCN3C(=O)Cc3ccccc3)cc2)cc1)[C@@H]1CCCN1C(=O)Cc1ccccc1`, the EC50 was 796 nM in the data set on Hepatitis C virus and greater than 10 µM in data set [2]. The compound also returned a CC50 at 72 h in data set [1] greater than 10 µM.
In the case of `O=C(Nc1ccc(-c2cnc(-c3ccc(NC(=O)[C@@H]4CCCN4C(=O)Cc4ccccc4)cc3)o2)cc1)[C@@H]1CCCN1C(=O)Cc1ccccc1`, the 50% effective concentration (EC50) in the data set on Hepatitis C virus was 2.38 nM; in data set [2], greater than 10 µM. The same compound gave a CC50 at 72 h in data set [1] greater than 10 µM.
Consider `O=C(Nc1ccc(-c2c[nH]c(-c3ccc(NC(=O)[C@@H]4CCCN4C(=O)Cc4ccccc4)cc3)n2)cc1)[C@@H]1CCCN1C(=O)Cc1ccccc1`, for which the concentration giving a half-maximal response (EC50) in the data set on Hepatitis C virus was 67.2 nM; in data set [2], greater than 10 µM. Also, in data set [1], the CC50 at 72 h was greater than 10 µM.
Turning to `CN1Cc2cc(NC(=O)[C@@H]3CCCN3C(=O)Cc3ccccc3)ccc2CC1c1ccc(NC(=O)[C@@H]2CCCN2C(=O)Cc2ccccc2)cc1` (mixture of isomers), in data set [3], the solubility was determined as 135 µg/mL. Further, the EC50 is 13.9 nM in the data set with Hepatitis C virus and greater than 10 µM in data set [2]. This compound had a CC50 at 72 h in data set [1] greater than 10 µM.
With `O=C(Nc1ccc(-c2nnc(-c3ccc(NC(=O)[C@@H]4CCCN4C(=O)Cc4ccccc4)cc3)o2)cc1)[C@@H]1CCCN1C(=O)Cc1ccccc1`, the EC50 is 149 nM with Hepatitis C virus and greater than 10 µM in data set [2]. Besides, the CC50 at 72 h in data set [1] is greater than 10 µM.
Take `O=C(Nc1cccc(CN2CCc3ccc(NC(=O)[C@@H]4CCCN4C(=O)Cc4ccccc4)cc3C2)c1)[C@@H]1CCCN1C(=O)Cc1ccccc1`: the half-maximal effective concentration (EC50) in the data set on Hepatitis C virus was 3890 nM; in data set [2] it was greater than 10 µM. The cytotoxic concentration (CC50) at 72 h in data set [1] was greater than 10 µM.
With `O=C(Nc1ccc(/C=C/c2ccc(NC(=O)[C@@H]3CCCN3C(=O)Cc3ccccc3)cc2)cc1)[C@@H]1CCCN1C(=O)Cc1ccccc1`, the half-maximal effective concentration (EC50) was 0.09 nM in the data set with Hepatitis C virus and greater than 10 µM in data set [2]. The compound also registered a CC50 at 72 h in data set [1] greater than 10 µM.
For the compound `O=C(Nc1ccc(COc2ccc(NC(=O)[C@@H]3CCCN3C(=O)Cc3ccccc3)cc2)cc1)[C@@H]1CCCN1C(=O)Cc1ccccc1`, the EC50 is 97.8 nM with Hepatitis C virus and greater than 10 µM in data set [2]. For the same compound, in data set [1], the CC50 at 72 h is greater than 10 µM.
